Data: patent US11970474B2, “Substituted benzodiazoles and use thereof in therapy” (THOMAS HELLEDAYS STIFTELSE FÖR MEDICINSK FORSKNING, priority 2018, dated 2024)

Tests used:
Experiment in all cases: Cell viability assay (resazurin)
Format in all cases: cell-based
786-0 = settings: Homo sapiens, 120 h, Cancer, Renal Cell Adenocarcinoma, five day incubation
Description: (§1) A dilution series of compound or vehicle are transferred to 96-well plates. Cells are seeded into the plate (500-10,000 cells/well) in suitable media and incubated for five days in 5% CO2 at 37° C. Thereafter, resazurin (diluted in suitable medium or PBS) are added to a final concentration 10 μg/ml resazurin at 37° C. for 2-4 hours before measuring the fluorescence (Ex544/Em590), essentially as described (Riss, Terry L. et al., “Cell Viability Assays.” In Assay Guidance Manual, ed. G. Sitta Sittampalam, et al. Bethesda (Md.): Eli Lilly & Company and the National Center for Advancing Translational Sciences (2004) http://www.ncbi.nlm.nih.gov/books/NBK144065/).
(§2) The compounds to be tested are nano-dispensed in duplicate in 11 concentrations, directly in 384-well cell plates, with a final DMSO concentration<1%. Cells are seeded in cell plates, pre-dispensed with compounds (200-2500 cells/well in 50 μl). After three or five days culture in 5% CO2, 37° C., resazurin diluted in PBS is added, 10 μl/well, to a final concentration of 10 μg/ml and cells are incubated 2-4 hours before measuring fluorescence (Ex544/Em590), as described (ibid.). Results obtained for selected example compounds described herein on cancer- and non-transformed cell lines are provided in the table below (Table 3) and summarized in FIG. 1. Where indicated, combination indexes was measured with CompuSyn software (www.compusyn.com) by the method of Chou-Talalay (Chou, Ting-Chao., Cancer Research, 70(2), 440-46 (2010)).

A549 = settings: Homo sapiens, 120 h, Cancer, Lung carcinoma, five day incubation
Description: as §1, §2

ACHN = settings: Homo sapiens, 120 h, Cancer, Renal Cell Adenocarcinoma, five day incubation
Description: as §1, §2

BJ Ras = settings: 120 h, Cancer, Transformed fibroblast, five day incubation
Description: as §1, §2

CCRF-CEM = settings: Homo sapiens, 120 h, Cancer, Acute Lymphoblastic Leukemia, five day incubation
Description: as §1, §2

Daudi = settings: Homo sapiens, 120 h, Cancer, Burkitt's Lymphoma, five day incubation
Description: as §1, §2

H460 = settings: Homo sapiens, NCI-H460, 120 h, Cancer, large cell lung carcinoma, five day incubation
Description: as §1, §2

HCT116 + Chr3 = settings: Homo sapiens, HCT-116, 120 h, Cancer, Colorectal Carcinoma, five day incubation
Description: as §1, §2

HT-29 = settings: Homo sapiens, 120 h, Cancer, Colorectal Adenocarcinoma, five day incubation
Description: as §1, §2

Jurkat = settings: Homo sapiens, 120 h, Cancer, Acute lymphoblastic leukemia, five day incubation
Description: as §1, §2

KG1a = settings: Homo sapiens, KG-1a, 120 h, Cancer, Acute Myelogenous Leukemia, five day incubation
Description: as §1, §2

LCL#1 = settings: 120 h, Normal, Epstein-Barr-virus-transformed lymphoblastoid cell lines, five day incubation
Description: as §1, §2

M059J = settings: Homo sapiens, 120 h, Cancer, Malignant Glioblastoma, five day incubation
Description: as §1, §2

M059K = settings: 120 h, Cancer, Malignant Glioblastoma, five day incubation
Description: as §1, §2

MOLT4 = settings: Homo sapiens, MOLT-4, 120 h, Cancer, Acute Lymphoblastic Leukemia, five day incubation
Description: as §1, §2

MRC5 = settings: Homo sapiens, 120 h, Normal, fetal lung fibroblast, five day incubation
Description: as §1, §2

PC3 = settings: Homo sapiens, PC-3, 120 h, Cancer, Prostate adenocarcinoma, five day incubation
Description: as §1, §2

RFX393 = settings: 120 h, Cancer, Renal cancer cell lines, five day incubation
Description: as §1, §2

Raji = settings: Homo sapiens, 120 h, Cancer, Burkitt's Lymphoma, five day incubation
Description: as §1, §2

Reh = settings: Homo sapiens, 120 h, Cancer, Acute Lymphocytic Leukemia, five day incubation
Description: as §1, §2

T98G = settings: Homo sapiens, 120 h, Cancer, Glioblastoma Multiforme, five day incubation
Description: as §1, §2

U2OS = settings: Homo sapiens, 120 h, Cancer, Osteosarcoma, five day incubation
Description: as §1, §2

UO31 = settings: Homo sapiens, UO-31, 120 h, Cancer, Renal carcinoma, five day incubation
Description: as §1, §2

VH10 = settings: 120 h, Normal, fibroblast, five day incubation
Description: as §1, §2

EC50 (786-0) [µM]	EC50 (A549) [µM]	EC50 (ACHN) [µM]	EC50 (CCRF-CEM) [µM]	EC50 (Daudi) [µM]	EC50 (H460) [µM]	EC50 (HCT116 + Chr3) [µM]	EC50 (HT-29) [µM]	EC50 (Jurkat) [µM]	EC50 (MOLT4) [µM]	EC50 (PC3) [µM]	EC50 (Raji) [µM]	Structure (SMILES)	EC50 (BJ Ras) [µM]	EC50 (KG1a) [µM]	EC50 (LCL#1) [µM]	EC50 (M059J) [µM]	EC50 (M059K) [µM]	EC50 (MRC5) [µM]	EC50 (RFX393) [µM]	EC50 (Reh) [µM]	other results
15	11	8.5	11	10	14	17	23	14	13	19	20	O=C(Nc1ccc(Cl)c(Cl)c1)N1CCC(n2c(=O)[nH]c3c(-c4ccc(CO)nc4)cccc32)CC1 [Example 28, N-(3,4-dichlorophenyl)-4-{4-[6-(hydroxymethyl)pyridin-3-yl]-2-oxo-2,3-dihydro-1H-1,3-benzodiazol-1-yl}piperidine-1-carboxamide]	15	18	34	21	19	21	14	15	EC50 (T98G): 19 µM; EC50 (U2OS): 16 µM; EC50 (UO31): 7.1 µM; EC50 (VH10): 21 µM
33	8.5	2.8	7.9	12	17	20	22	15	17	29	23	Cc1cc(NC(=O)N2CCC(n3c(=O)[nH]c4c(Br)cccc43)CC2)ccc1I [Example 50, 4-(4-Bromo-2-oxo-2,3-dihydro-1H-1,3-benzodiazol-1-yl)-N-(4-iodo-3-methylphenyl)piperidine-1-carboxamide]	14	19	40	29	27	47	12	17	EC50 (T98G): 17 µM; EC50 (U2OS): 25 µM; EC50 (UO31): 3.2 µM; EC50 (VH10): 48 µM

Structure (SMILES)	EC50 (786-0) [µM]	EC50 (A549) [µM]	EC50 (ACHN) [µM]	EC50 (CCRF-CEM) [µM]	EC50 (Daudi) [µM]	EC50 (H460) [µM]	EC50 (HCT116 + Chr3) [µM]	EC50 (HT-29) [µM]	EC50 (Jurkat) [µM]	EC50 (MOLT4) [µM]	EC50 (PC3) [µM]	EC50 (Raji) [µM]	EC50 (BJ Ras) [µM]	EC50 (KG1a) [µM]	EC50 (LCL#1) [µM]	EC50 (M059J) [µM]	EC50 (M059K) [µM]	EC50 (MRC5) [µM]	EC50 (RFX393) [µM]	EC50 (Reh) [µM]	other results
O=C(Nc1ccc(I)cc1)N1CCC(n2c(=O)[nH]c3c(Br)cccc32)CC1 [Example 13, 4-(4-Bromo-2-oxo-2,3-dihydro-1H-1,3-benzodiazol-1-yl)-N-(4-iodophenyl)piperidine-1-carboxamide]	30	12	2.3	15	13	10	21	24	13	15	35	25	4.8	16	33	26	20	75	20	19	EC50 (T98G): 14 µM; EC50 (U2OS): 20 µM; EC50 (UO31): 2.9 µM; EC50 (VH10): 32 µM
